Usually IC50 stands for the concentration that inhibits the measured activity by half. A word on the Cmax: it is the highest concentration seen after dosing. A word on the half-life: it is how long it takes for the measured level to halve. Broadly, the AUC(0-inf) is the area under the concentration-time curve extrapolated to infinity. A higher AUC(0-inf) goes with high exposure.

The values below come from ChEMBL document CHEMBL5370532, “Selective Estrogen receptor degraders (SERDs) for the treatment of breast cancer: An overview” (Eur J Med Chem, 2023).

Each structure is given as a SMILES string.

For series [1], the system named is MCF7. Put plainly: Antiproliferative activity against 17beta-estradiol stimulated human MCF7 cells assessed as inhibition of cell growth incubated for 5 to 7 days by fluorescence based assay. Type of series: functional.
Series [2] has as its system Ishikawa. Put plainly: Antiproliferative activity against human Ishikawa cells assessed as inhibition of cell growth incubated for 48 hrs by MTT assay. It is filed as functional, cell-based.
In series [3] the test system is MCF7. Put plainly: Antiproliferative activity against human MCF7 cells assessed as inhibition of cell growth incubated for 48 hrs by MTT assay. It is filed as functional, cell-based. To be noted: MCF7, 48 h. (In general: Formazan colour is commonly taken as a measure of viable cells.)
Series [4] deals with MCF7. Put plainly: Antiproliferative activity against human MCF7 cells assessed as inhibition of cell growth incubated for 48 hrs by CCK-8 assay. Particulars: MCF7, 48 h. It is filed as functional, cell-based.
A short description of series [5]: Downregulation of ER expression in human MCF7 cells incubated for 48 hrs by ELISA. Particulars: MCF7, 48 h. Type of series: functional, cell-based. For orientation: ELISA stands for enzyme-linked immunosorbent assay.
Series [6] in a line: In vivo antagonist activity against E2-mediated uterine stimulation in Sprague-Dawley rat administered orally or subcutaneously once daily for 3 days. Type of series: functional, organism-based.
In series [7] the target is Estrogen receptor beta (Homo sapiens, UniProt Q92731). Put plainly: Inhibition of ERbeta (unknown origin) incubated for 4 hrs by fluorescence polarization assay. Background: Polarisation of emitted light reports the rotation of a fluorescent probe.
Estrogen receptor beta, sequence (Q92731 whole entry): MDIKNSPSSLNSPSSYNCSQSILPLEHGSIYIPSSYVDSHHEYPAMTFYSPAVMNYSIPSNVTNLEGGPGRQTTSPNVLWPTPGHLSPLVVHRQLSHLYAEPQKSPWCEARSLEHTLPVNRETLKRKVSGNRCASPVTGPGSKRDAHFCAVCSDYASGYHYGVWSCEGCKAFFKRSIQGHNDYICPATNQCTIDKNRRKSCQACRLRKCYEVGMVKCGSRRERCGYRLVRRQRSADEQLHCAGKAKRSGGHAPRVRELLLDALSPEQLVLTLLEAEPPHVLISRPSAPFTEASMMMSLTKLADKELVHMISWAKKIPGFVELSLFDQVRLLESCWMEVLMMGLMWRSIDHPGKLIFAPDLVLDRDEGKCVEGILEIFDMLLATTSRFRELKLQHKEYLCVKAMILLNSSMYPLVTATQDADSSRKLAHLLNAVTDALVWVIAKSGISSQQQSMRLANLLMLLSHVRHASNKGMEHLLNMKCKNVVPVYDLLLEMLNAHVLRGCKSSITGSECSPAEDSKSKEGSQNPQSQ
A short description of series [8]: Cmax in Sprague-Dawley rat at 10 mg/kg, po via gavage for 2 hrs by UHPLC analysis. It is filed as ADME, organism-based. Further details: dose 10 mg/kg, time 2 hrs, route po. Particulars: in vivo.
Series [9] in a line: Half life in Sprague-Dawley rat at 10 mg/kg, po via gavage for 2 hrs by UHPLC analysis. Type of series: ADME, organism-based. To be noted: in vivo.
Series [10] is described as follows: Observed AUC (0 to infinity) in Sprague-Dawley rat at 10 mg/kg, po via gavage for 2 hrs by UHPLC analysis. It is filed as ADME, organism-based. Details: dose 10 mg/kg, time 2 hrs, route po. To be noted: in vivo.

Turning to `CC1=C(c2ccc(O)cc2)[C@H](c2ccc(OCCN3CC[C@@H](C)C3)cc2)Oc2cc(O)ccc21`, in [1], the 50% inhibitory concentration (IC50) came to 7.2 nM.
`O=C(/C=C\c1ccc(-c2nc(-c3ccc(O)cc3)nc(-c3ccc(O)cc3)n2)cc1)NCCCO`: the IC50 in [2] was 3.11 µM; in [3], 3.15 µM.
In the case of `COc1ccc(C(=O)C2=C(Oc3ccc(/C=C/C(=O)O)cc3)c3ccc(O)cc3OC2)cc1`, the half-inhibitory concentration (IC50) in series [4] amounted to 800 nM.
Turning to `CCNCCc1ccc(CN(CC)c2cc(OC)ccc2[C@@H]2CCc3cc(O)ccc3C2)cc1` [ELACESTRANT], the figures for the EC50 in series [5] and in series [6] were 0.6 nM and 0.3 mg/kg, respectively. In addition, in series [7], the IC50 came out at 870 nM.
`C[C@]12CC[C@@H]3c4ccc(B(O)O)cc4C[C@@H](CCCCCCCCC[S+]([O-])CCCC(F)(F)C(F)(F)F)[C@H]3[C@@H]1CC[C@@H]2O` (stereo not given in full) [ZB-716]: the Cmax in [8] was 158 ng/mL. In series [9], this molecule gave a half-life of 1020 min. This molecule yielded an AUC(0-inf) in series [10] of 1450 ng·h/mL.
